Measured values reported in patent US20260248748A1, “LIPOOLIGOUREAS, PHARMACEUTICAL COMPOSITION, AND LIPOOLIGOUREAS FOR USE AS MEDICAMENT” (priority 2022, published 2026).
Converted amounts (≈) assume the structure as drawn. Like-named read-outs stand apart in the source and are kept apart here.

Assays:
[1] = test system: Enterococcus faecalis ATCC 14506; type: cell-based; settings: LB medium, 24 h, 30° C.
Experimental: (§1) All strains were cultured in LB medium (lysogenic broth).
(§2) The test compounds were dissolved in water. […] Data were obtained from three independent experiments.

[2] = test system: Escherichia coli ST2-8624 O157:H7; type: cell-based; settings: LB medium, 24 h, 30° C.
Experimental: as §1, §2

[3] = test system: Klebsiella pneumoniae PCM 1; type: cell-based; settings: LB medium, 24 h, 30° C.
Experimental: as §1, §2

[4] = test system: Pseudomonas aeruginosa PAO1 PCM 499; type: cell-based; settings: LB medium, 24 h, 30° C.
Experimental: as §1, §2

[5] = test system: Salmonella sv. typhimurium TT622; type: cell-based; settings: 24 h
Experimental: as §1, §2

[6] = test system: Staphylococcus aureus ATCC 29213; type: cell-based; settings: LB medium, 24 h, 30° C.
Experimental: as §1, §2

[7] = test system: Staphylococcus epidermidis ATCC 12228; type: cell-based; settings: LB medium, 24 h, 30° C.
Experimental: as §1, §2

[8] = test system: Yersinia enterocolitica PCM 2081; type: cell-based; settings: LB medium, 24 h, 30° C.
Experimental: as §1, §2

[9] = test system: Methicillin-resistant Staphylococcus aureus (MRSA) 401/5; settings: MRSA strain (+) 401/5; LB medium, 24 h, 30° C.
Excerpt: (§3) All bacterial strains were obtained from the Polish Collection of Microorganisms (PCM) or American Type Culture Collection (ATCC). Gram-positive bacterial strains: Staphylococcus aureus ATCC 29213, Staphylococcus epidermidis ATCC 12228, Enterococcus faecalis ATCC 14506. Methicillin-resistant Staphylococcus aureus (MRSA) bacterial strains: Staphylococcus aureus 401/5, Staphylococcus aureus 4811/13, Staphylococcus aureus 5288/13. Gram-negative bacterial strains: Escherichia coli ST2-8624 O157:H7, Pseudomonas aeruginosa PAO1 PCM 499, Klebsiella pneumoniae PCM 1, Salmonella sv. typhimurium TT622, and Yersinia enterocolitica PCM 2081. All strains were cultured in LB medium (lysogenic broth).
(§4) 10 mL of LB medium was inoculated with the material from a single bacterial colony and cultured at 30° C. with shaking overnight. The optical density of overnight cultures (at 600 nm) was then brought to 0.05 by dilution with a fresh portion of LB medium. The test compounds were dissolved in water. Serial dilutions of the compounds were performed in LB medium ranging from 5 to 50 μg/mL (final concentrations). The experiment was carried out by adding 100 μL of each prepared dilution to 100 μL of diluted overnight bacterial culture in the wells of a 96-well titer plate. […] Optical density measurements were conducted using a TECAN Sunrise plate reader. Data were obtained from three independent experiments.

[10] = test system: Methicillin-resistant Staphylococcus aureus (MRSA) 4811/13; settings: MRSA strain (+) 4811/13; LB medium, 24 h, 30° C.
Excerpt: as §3, §4

[11] = test system: Methicillin-resistant Staphylococcus aureus (MRSA) 5288/13; settings: MRSA strain (+) 5288/13; LB medium, 24 h, 30° C.
Excerpt: as §3, §4

[12] = test system: strains of methicillin-resistant Staphylococcus aureus (MRSA); assay: Activity against MRSA strains (summary of the MIC results); type: cell-based; settings: in words, from the MIC values of Table 1
Experimental: as §1, §2
The results of the measurements summarized in Table 1 indicate that all of the lipooligoureas tested show varying activity against the bacterial strains tested. Lipooligoureas according to the invention show activity against both gram-positive and gram-negative bacterial strains. The results obtained indicate a certain degree of selectivity of the lipooligoureas according to the invention against gram-positive strains of Staphylococcus aureus ATCC 29213 and Staphylococcus epidermidis ATCC 12228, for which by far the highest activity of the tested lipooligoureas was observed, i.e. the lowest values of MIC. This trend is also reflected in the activity against strains of methicillin-resistant Staphylococcus aureus (MRSA).

[13] = (−) Salmonella sv. typhimurium TT622, LB medium, 30° C.

Compound | MIC [1] | MIC [2] | MIC [3] | MIC [4] | MIC [5, 13] | MIC [6] | MIC [7] | MIC [8] | MIC [9] | MIC [10] | MIC [11] | MIC [5] | activity against strains of methicillin-resistant Staphylococcus aureus (MRSA) [12]
CCCCCCCCCC(=O)N[C@H](CNC(=O)N[C@@H](CCCCN)CNC(=O)N[C@@H](CCCCN)CNC(=O)N[C@H](CNC(=O)N[C@@H](CCCCN)CNC(N)=O)CC(C)C)Cc1ccccc1 [LOU1] | n.d. (n.d. = not determined, i.e., the MIC value was higher than 50 μg/mL) | n.d. (n.d. = not determined, i.e., the MIC value was higher than 50 μg/mL) | n.d. (n.d. = not determined, i.e., the MIC value was higher than 50 μg/mL) | n.d. (n.d. = not determined, i.e., the MIC value was higher than 50 μg/mL) | n.d. (n.d. = not determined, i.e., the MIC value was higher than 50 μg/mL) | 30 µg/mL (≈ 31.2 µM) | 30 µg/mL (≈ 31.2 µM) | n.d. (n.d. = not determined, i.e., the MIC value was higher than 50 μg/mL) | 30 µg/mL (≈ 31.2 µM) | 30 µg/mL (≈ 31.2 µM) | 40 µg/mL (≈ 41.6 µM) |  | 
CCCCCCCCCC(=O)N[C@H](CNC(=O)N[C@@H](CCN)CNC(=O)N[C@@H](CCN)CNC(=O)N[C@H](CNC(=O)N[C@H](CNC(N)=O)CC(C)C)CC(C)C)Cc1ccccc1 [LOU2] | 20 µg/mL (≈ 22.5 µM) | 30 µg/mL (≈ 33.7 µM) | 30 µg/mL (≈ 33.7 µM) | 30 µg/mL (≈ 33.7 µM) |  | 10 µg/mL (≈ 11.2 µM) | 10 µg/mL (≈ 11.2 µM) | 30 µg/mL (≈ 33.7 µM) | 10 µg/mL (≈ 11.2 µM) | 10 µg/mL (≈ 11.2 µM) | 10 µg/mL (≈ 11.2 µM) | 30 µg/mL (≈ 33.7 µM) | particularly high activity
CCCCCCCCCC(=O)N[C@H](CNC(=O)N[C@@H](CCN)CNC(=O)N[C@H](CNC(=O)N[C@H](CNC(=O)N[C@@H](CCN)CNC(N)=O)CC(C)C)CC(C)C)Cc1ccccc1 [LOU3] | 5 µg/mL (≈ 5.62 µM) | 10 µg/mL (≈ 11.2 µM) | 20 µg/mL (≈ 22.5 µM) | 10 µg/mL (≈ 11.2 µM) |  | 5 µg/mL (≈ 5.62 µM) | 5 µg/mL (≈ 5.62 µM) | 10 µg/mL (≈ 11.2 µM) | 5 µg/mL (≈ 5.62 µM) | 5 µg/mL (≈ 5.62 µM) | 5 µg/mL (≈ 5.62 µM) | 20 µg/mL (≈ 22.5 µM) | particularly high activity
CCCCCCCCCC(=O)N[C@H](CNC(=O)N[C@@H](CCN)CNC(=O)N[C@@H](CCN)CNC(=O)N[C@H](CNC(=O)N[C@@H](CCN)CNC(N)=O)CC(C)C)Cc1ccccc1 [LOU4] | 40 µg/mL (≈ 45.6 µM) | n.d. (n.d. = not determined, i.e., the MIC value was higher than 50 μg/mL) | n.d. (n.d. = not determined, i.e., the MIC value was higher than 50 μg/mL) | n.d. (n.d. = not determined, i.e., the MIC value was higher than 50 μg/mL) | n.d. (n.d. = not determined, i.e., the MIC value was higher than 50 μg/mL) | 20 µg/mL (≈ 22.8 µM) | 20 µg/mL (≈ 22.8 µM) | n.d. (n.d. = not determined, i.e., the MIC value was higher than 50 μg/mL) | 20 µg/mL (≈ 22.8 µM) | 30 µg/mL (≈ 34.2 µM) | 30 µg/mL (≈ 34.2 µM) |  | 
